A melting point of 180 °C was found for CC(C)N(C)Cc1cnnn1-c1cccc(C2=Nc3cc(N(C)C(C)C)c(Cl)cc3NC(=O)C2)c1 [Example 148, 8-Chloro-7-(isopropyl-methyl-amino)-4-(3-{5-[(isopropyl-methyl-amino)-methyl]-[1,2,3]triazol-1-yl}-phenyl)-1,3-dihydro-benzo[b][1,4]diazepin-2-one] in this work. A melting point of 182 °C was found for CC(C)CN(C)Cc1cnnn1-c1cccc(C2=Nc3cc(N(C)C(C)C)c(Cl)cc3NC(=O)C2)c1 [Example 149, 8-Chloro-4-(3-{5-[(isobutyl-methyl-amino)-methyl]-[1,2,3]triazol-1-yl}-phenyl)-7-(isopropyl-methyl-amino)-1,3-dihydro-benzo[b][1,4]diazepin-2-one] in this work. A melting point of 197 °C was found for CC(C)N(C)c1cc2c(cc1C(F)(F)F)NC(=O)CC(c1cccc(-n3nncc3CN(C)C)c1)=N2 [Example 150, 4-[3-(5-Dimethylaminomethyl-[1,2,3]triazol-1-yl)-phenyl]-7-(isopropyl-methyl-amino)-8-trifluoromethyl-1,3-dihydro-benzo[b][1,4]diazepin-2-one] in this work. A melting point of 175 °C was found for CC(C)N(C)c1cc2c(cc1C(F)(F)F)NC(=O)CC(c1cccc(-n3nncc3CN3CCCC3)c1)=N2 [Example 151, 7-(Isopropyl-methyl-amino)-4-[3-(5-pyrrolidin-1-ylmethyl-[1,2,3]triazol-1-yl)-phenyl]-8-trifluoromethyl-1,3-dihydro-benzo[b][1,4]diazepin-2-one] in this work. A melting point of 152 °C was found for CC(C)N(C)c1cc2c(cc1C(F)(F)F)NC(=O)CC(c1cccc(-n3nncc3CNCC3CC3)c1)=N2 [Example 153, 4-(3-{5-[(Cyclopropylmethyl-amino)-methyl]-[1,2,3]triazol-1-yl}-phenyl)-7-(isopropyl-methyl-amino)-8-trifluoromethyl-1,3-dihydro-benzo[b][1,4]diazepin-2-one] in this work. A melting point of 144 °C was found for CC(C)N(C)c1cc2c(cc1Cl)NC(=O)CC(c1cccc(-n3nncc3CNC3CC3)c1)=N2 [Example 154, 8-Chloro-4-[3-(5-cyclopropylaminomethyl-[1,2,3]triazol-1-yl)-phenyl]-7-(isopropyl-methyl-amino)-1,3-dihydro-benzo[b][1,4]diazepin-2-one] in this work. A melting point of 191 °C was found for CC(C)NCc1cnnn1-c1cccc(C2=Nc3cc(N(C)C(C)C)c(C(F)(F)F)cc3NC(=O)C2)c1 [Example 155, 4-{3-[5-(Isopropylamino-methyl)-[1,2,3]triazol-1-yl]-phenyl}-7-(isopropyl-methyl-amino)-8-trifluoromethyl-1,3-dihydro-benzo[b][1,4]diazepin-2-one] in this work. A melting point of 182 °C was found for CC(C)CNCc1cnnn1-c1cccc(C2=Nc3cc(N(C)C(C)C)c(Cl)cc3NC(=O)C2)c1 [Example 156, 8-Chloro-4-{3-[5-(isobutylamino-methyl)-[1,2,3]triazol-1-yl]-phenyl}-7-(isopropyl-methyl-amino)-1,3-dihydro-benzo[b][1,4]-diazepin-2-one] in this work. A melting point of 178 °C was found for CC(C)N(C)c1cc2c(cc1C(F)(F)F)NC(=O)CC(c1cccc(-n3nncc3CNC3CC3)c1)=N2 [Example 157, 4-[3-(5-Cyclopropylaminomethyl-[1,2,3]triazol-1-yl)-phenyl]-7-(isopropyl-methyl-amino)-8-trifluoromethyl-1,3-dihydro-benzo[b][1,4]diazepin-2-one] in this work. A melting point of 164 °C was found for Cc1cc2c(cc1N(C)CC(C)C)N=C(c1cccc(-n3ncnc3CN3CCCC3)c1)CC(=O)N2 [Example 158, 7-(Isobutyl-methyl-amino)-8-methyl-4-[3-(5-pyrrolidin-1-ylmethyl-[1,2,4]triazol-1-yl)-phenyl]-1,3-dihydro-benzo[b][1,4]diazepin-2-one] in this work. A melting point of 114 °C was found for Cc1cc2c(cc1N(C)CC(C)C)N=C(c1cccc(-n3ncnc3CNC3CC3)c1)CC(=O)N2 [Example 159, 4-[3-(5-Cyclopropylaminomethyl-[1,2,4]triazol-1-yl)-phenyl]-7-(isobutyl-methyl-amino)-8-methyl-1,3-dihydro-benzo[b][1,4]diazepin-2-one] in this work. A melting point of 225 °C was found for Cc1cc(-c2cccc(C3=Nc4cc(NC(C)C)c(Cl)cc4NC(=O)C3)c2)on1 [Example 160, 8-Chloro-7-isopropylamino-4-[3-(3-methyl-isoxazol-5-yl)-phenyl]-1,3-dihydro-benzo[b][1,4]diazepin-2-one] in this work. A melting point of 250 °C was found for CC(C)Nc1cc2c(cc1Cl)NC(=O)CC(c1cccc(-n3nncc3CO)c1)=N2 [Example 161, 8-Chloro-4-[3-(5-hydroxymethyl-[1,2,3]triazol-1-yl)-phenyl]-7-isopropylamino-1,3-dihydro-benzo[b][1,4]diazepin-2-one] in this work. A melting point of 192 °C was found for CCCN(C)c1cc2c(cc1Cl)NC(=O)CC(c1cccc(-n3ncnc3CO)c1)=N2 [Example 162, 8-Chloro-7-(methyl-propyl-amino)-4-[3-(5-hydroxymethyl-[1,2,4]triazol-1-yl)-phenyl]-1,3-dihydro-benzo[b][1,4]diazepin-2-one] in this work. A melting point of 183 °C was found for CCCN(C)c1cc2c(cc1Cl)NC(=O)CC(c1cccc(-n3ncnc3CN3CCCC3)c1)=N2 [Example 164, 8-Chloro-7-(methyl-propyl-amino)-4-[3-(5-pyrrolidin-1-ylmethyl-[1,2,4]triazol-1-yl)-phenyl]-1,3-dihydro-benzo[b][1,4]diazepin-2-one] in this work. A melting point of 164 °C was found for CC(C)CN(C)c1cc2c(cc1Cl)NC(=O)CC(c1cccc(-n3ncnc3CN3CCCC3)c1)=N2 [Example 165, 8-Chloro-7-(isobutyl-methyl-amino)-4-[3-(5-pyrrolidin-1-ylmethyl-[1,2,4]triazol-1-yl)-phenyl]-1,3-dihydro-benzo[b][1,4]diazepin-2-one] in this work. A melting point of 170 °C was found for CCCN(C)c1cc2c(cc1Cl)NC(=O)CC(c1cccc(-n3ncnc3CN(C)C)c1)=N2 [Example 166, 8-Chloro-4-[3-(5-dimethylaminomethyl-[1,2,4]triazol-1-yl)-phenyl]-7-(methyl-propyl-amino)-1,3-dihydro-benzo[b][1,4]diazepin-2-one] in this work. A melting point of 123 °C was found for CCCN(C)c1cc2c(cc1Cl)NC(=O)CC(c1cccc(-n3ncnc3CNC3CC3)c1)=N2 [Example 167, 8-Chloro-4-[3-(5-cyclopropylaminomethyl-[1,2,4]triazol-1-yl)-phenyl]-7-(methyl-propyl-amino)-1,3-dihydro-benzo[b][1,4]diazepin-2-one] in this work. A melting point of 191 °C was found for Cc1cc2c(cc1N(C)CC(C)C)N=C(c1cccc(-n3ncnc3CO)c1)CC(=O)N2 [Example 168, 4-[3-(5-Hydroxymethyl-[1,2,4]triazol-1-yl)-phenyl]-7-(isobutyl-methyl-amino)-8-methyl-1,3-dihydro-benzo[b][1,4]diazepin-2-one] in this work. A melting point of 147 °C was found for CCCN(C)c1cc2c(cc1C(F)(F)F)NC(=O)CC(c1cccc(-n3ccnn3)c1)=N2 [Example 170, 7-(Methyl-propyl-amino)-4-(3-[1,2,3]triazol-1-yl-phenyl)-8-trifluoromethyl-1,3-dihydro-benzo[b][1,4]diazepin-2-one] in this work. A melting point of 182 °C was found for CC(C)CN(C)c1cc2c(cc1C(F)(F)F)NC(=O)CC(c1cccc(-n3cccn3)c1)=N2 [Example 171, 7-(Isobutyl-methyl-amino)-4-(3-pyrazol-1-yl-phenyl)-8-trifluoromethyl-1,3-dihydro-benzo[b][1,4]diazepin-2-one] in this work. A melting point of 189 °C was found for CC(C)N(C)c1cc2c(cc1C(F)(F)F)NC(=O)CC(c1ccnc(C#N)c1)=N2 [Example 172, 4-[8-(Isopropyl-methyl-amino)-4-oxo-7-trifluoromethyl-4,5-dihydro-3H-benzo[b][1,4]diazepin-2-yl]-pyridine-2-carbonitrile] in this work. A melting point of 213 °C was found for CC(C)CN(C)c1cc2c(cc1Cl)NC(=O)CC(c1cccc(-n3cncn3)c1)=N2 [Example 173, 8-Chloro-7-(isobutyl-methyl-amino)-4-(3-[1,2,4]triazol-1-yl-phenyl)-1,3-dihydro-benzo[b][1,4]diazepin-2-one] in this work. A melting point of 85 °C was found for CC(C)CN(C)c1cc2c(cc1Cl)NC(=O)CC(c1cccc(-n3ccnn3)c1)=N2 [Example 175, 8-Chloro-7-(isobutyl-methyl-amino)-4-(3-[1,2,3]triazol-1-yl-phenyl)-1,3-dihydro-benzo[b][1,4]diazepin-2-one] in this work. A melting point of 202 °C was found for CC(C)CN(C)c1cc2c(cc1C(F)(F)F)NC(=O)CC(c1cccc(-n3ccnn3)c1)=N2 [Example 176, 7-(Isobutyl-methyl-amino)-4-(3-[1,2,3]triazol-1-yl-phenyl)-8-trifluoromethyl-1,3-dihydro-benzo[b][1,4]diazepin-2-one] in this work. A melting point of 221 °C was found for CC(C)CNc1cc2c(cc1C(F)(F)F)NC(=O)CC(c1cccc(-n3ccnc3)c1)=N2 [Example 177, 4-(3-Imidazol-1-yl-phenyl)-7-isobutylamino-8-trifluoromethyl-1,3-dihydro-benzo[b][1,4]diazepin-2-one] in this work. A melting point of 212 °C was found for CC(C)CNc1cc2c(cc1Cl)NC(=O)CC(c1cccc(-n3ccnc3)c1)=N2 [Example 178, 8-Chloro-4-(3-imidazol-1-yl-phenyl)-7-isobutylamino-1,3-dihydro-benzo[b][1,4]diazepin-2-one] in this work. A melting point of 249 °C was found for CC(C)CNc1cc2c(cc1Cl)NC(=O)CC(c1cccc(-n3ccnn3)c1)=N2 [Example 179, 8-Chloro-7-(isobutyl-amino)-4-(3-[1,2,3]triazol-1-yl-phenyl)-1,3-dihydro-benzo[b][1,4]diazepin-2-one] in this work. A melting point of 212 °C was found for CC(C)CNc1cc2c(cc1C(F)(F)F)NC(=O)CC(c1cccc(-n3ccnn3)c1)=N2 [Example 180, 7-(Isobutyl-amino)-4-(3-[1,2,3]triazol-1-yl-phenyl)-8-trifluoromethyl-1,3-dihydro-benzo[b][1,4]diazepin-2-one] in this work. A melting point of 222 °C was found for CC(C)CNc1cc2c(cc1Cl)NC(=O)CC(c1cccc(-n3cncn3)c1)=N2 [Example 181, 8-Chloro-7-(isobutyl-amino)-4-(3-[1,2,4]triazol-1-yl-phenyl)-1,3-dihydro-benzo[b][1,4]diazepin-2-one] in this work. A melting point of 191 °C was found for CC(C)CNc1cc2c(cc1C(F)(F)F)NC(=O)CC(c1cccc(-n3cncn3)c1)=N2 [Example 182, 7-(Isobutyl-amino)-4-(3-[1,2,4]triazol-1-yl-phenyl)-8-trifluoromethyl-1,3-dihydro-benzo[b][1,4]diazepin-2-one] in this work.

— patent publication US6544985B2, “Dihydro-benzo [b][1,4]diazepin-2-one derivatives” (Hoffman-La Roche Inc., priority 2001, dated 2003)
